{
  "source": "PubChem BioAssay AID2060621",
  "about": "(Molecular Pharmacology Branch, DTP, NCI, 2025);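 note: viability read after seven days of drug exposure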;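 for viability, T/C: 100% = DMSO vehicle control wells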",
  "system": "324938-238-R-J1-PDC complex spheroids viability",
  "test": "Anticancer human tumor 324938-238-R-J1-PDC patient-derived bladder carcinoma cell line growth inhibition [CLK]",
  "conditions": "for IC50: curve of first compound; for viability, T/C: stronger effect = lower value",
  "summary_of_the_method": "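Patient-derived tumor cells grown as complex spheroids with HUVEC endothelial cells and mesenchymal stem cells, treated with drug combinations. Concentrations descend in half-log steps from near clinical Cmax, or from 10 microM if Cmax unknown.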",
  "data": [
    {"smiles": "CC(C)CC(NC(=O)C(Cc1ccccc1)NC(=O)c1cnccn1)B(O)O", "note": "(configuration not stated) + CN1CCN(c2cc(C(=O)Nc3cc4cc(-c5cnn(C)c5)ccc4cn3)ccn2)CC1", "values": [
      {"measurement": "IC50", "setting": "second compound 0.0316 µM", "value": 1.29, "unit": "nM"},
      {"measurement": "IC50", "setting": "second compound 0.1 µM", "value": "< 0.949", "unit": "nM"},
      {"measurement": "IC50", "setting": "second compound 0.316 µM", "value": "< 0.949", "unit": "nM"},
      {"measurement": "IC50", "setting": "second compound 1 µM", "value": "< 0.949", "unit": "nM"},
      {"measurement": "IC50", "setting": "second compound 3.16 µM", "value": "< 0.949", "unit": "nM"},
      {"measurement": "IC50", "setting": "second compound 10 µM", "value": "< 0.949", "unit": "nM"},
      {"measurement": "viability, T/C", "setting": "second compound 0.0316 µM, first compound 0.000949 µM", "value": 67, "unit": "%"},
      {"measurement": "viability, T/C", "setting": "second compound 0.0316 µM, first compound 0.003 µM", "value": 2.89, "unit": "%"},
      {"measurement": "viability, T/C", "setting": "second compound 0.0316 µM, first compound 0.00949 µM", "value": 0.33, "unit": "%"},
      {"measurement": "viability, T/C", "setting": "second compound 0.0316 µM, first compound 0.03 µM", "value": 0.33, "unit": "%"},
      {"measurement": "viability, T/C", "setting": "second compound 0.0316 µM, first compound 0.0949 µM", "value": 0.22, "unit": "%"},
      {"measurement": "viability, T/C", "setting": "second compound 0.0316 µM, first compound 0.3 µM", "value": 0.18, "unit": "%"},
      {"measurement": "viability, T/C", "setting": "second compound 0.1 µM, first compound 0.000949 µM", "value": 46.9, "unit": "%"},
      {"measurement": "viability, T/C", "setting": "second compound 0.1 µM, first compound 0.003 µM", "value": 2.21, "unit": "%"},
      {"measurement": "viability, T/C", "setting": "second compound 0.1 µM, first compound 0.00949 µM", "value": 0.38, "unit": "%"},
      {"measurement": "viability, T/C", "setting": "second compound 0.1 µM, first compound 0.03 µM", "value": 0.33, "unit": "%"},
      {"measurement": "viability, T/C", "setting": "second compound 0.1 µM, first compound 0.0949 µM", "value": 0.18, "unit": "%"},
      {"measurement": "viability, T/C", "setting": "second compound 0.1 µM, first compound 0.3 µM", "value": 0.32, "unit": "%"},
      {"measurement": "viability, T/C", "setting": "second compound 0.316 µM, first compound 0.000949 µM", "value": 11.1, "unit": "%"},
      {"measurement": "viability, T/C", "setting": "second compound 0.316 µM, first compound 0.003 µM", "value": 0.71, "unit": "%"},
      {"measurement": "viability, T/C", "setting": "second compound 0.316 µM, first compound 0.00949 µM", "value": 0.31, "unit": "%"},
      {"measurement": "viability, T/C", "setting": "second compound 0.316 µM, first compound 0.03 µM", "value": 0.2, "unit": "%"},
      {"measurement": "viability, T/C", "setting": "second compound 0.316 µM, first compound 0.0949 µM", "value": 0.15, "unit": "%"},
      {"measurement": "viability, T/C", "setting": "second compound 0.316 µM, first compound 0.3 µM", "value": 0.17, "unit": "%"},
      {"measurement": "viability, T/C", "setting": "second compound 1 µM, first compound 0.000949 µM", "value": 0.28, "unit": "%"},
      {"measurement": "viability, T/C", "setting": "second compound 1 µM, first compound 0.003 µM", "value": 0.27, "unit": "%"},
      {"measurement": "viability, T/C", "setting": "second compound 1 µM, first compound 0.00949 µM", "value": 0.18, "unit": "%"},
      {"measurement": "viability, T/C", "setting": "second compound 1 µM, first compound 0.03 µM", "value": 0.16, "unit": "%"},
      {"measurement": "viability, T/C", "setting": "second compound 1 µM, first compound 0.0949 µM", "value": 0.44, "unit": "%"},
      {"measurement": "viability, T/C", "setting": "second compound 1 µM, first compound 0.3 µM", "value": 0.22, "unit": "%"},
      {"measurement": "viability, T/C", "setting": "second compound 3.16 µM, first compound 0.000949 µM", "value": 0.23, "unit": "%"},
      {"measurement": "viability, T/C", "setting": "second compound 3.16 µM, first compound 0.003 µM", "value": 0.24, "unit": "%"},
      {"measurement": "viability, T/C", "setting": "second compound 3.16 µM, first compound 0.00949 µM", "value": 0.24, "unit": "%"},
      {"measurement": "viability, T/C", "setting": "second compound 3.16 µM, first compound 0.03 µM", "value": 0.1, "unit": "%"},
      {"measurement": "viability, T/C", "setting": "second compound 3.16 µM, first compound 0.0949 µM", "value": 0.18, "unit": "%"},
      {"measurement": "viability, T/C", "setting": "second compound 3.16 µM, first compound 0.3 µM", "value": 0.17, "unit": "%"},
      {"measurement": "viability, T/C", "setting": "second compound 10 µM, first compound 0.000949 µM", "value": 0.71, "unit": "%"},
      {"measurement": "viability, T/C", "setting": "second compound 10 µM, first compound 0.003 µM", "value": 0.21, "unit": "%"},
      {"measurement": "viability, T/C", "setting": "second compound 10 µM, first compound 0.00949 µM", "value": 0.18, "unit": "%"},
      {"measurement": "viability, T/C", "setting": "second compound 10 µM, first compound 0.03 µM", "value": 0.22, "unit": "%"},
      {"measurement": "viability, T/C", "setting": "second compound 10 µM, first compound 0.0949 µM", "value": 0.26, "unit": "%"},
      {"measurement": "viability, T/C", "setting": "second compound 10 µM, first compound 0.3 µM", "value": 0.25, "unit": "%"}
    ]}
  ]
}
